Key:
[1] = target: Histamine H1 receptor (Homo sapiens, UniProt P35367); assay: Antagonist activity at human recombinant histamine H1 receptor expressed in CHO cells by FLPR assay; format: functional, cell-based
[2] = target: 5-hydroxytryptamine receptor 2A (Homo sapiens, UniProt P28223); assay: Antagonist activity at human 5HT2A receptor expressed in HEK cells assessed as intracellular calcium luminescence by aequorin assay; format: functional, cell-based, HEK293
[3] = target: 5-hydroxytryptamine receptor 2B (Homo sapiens, UniProt P41595); assay: Antagonist activity at human 5HT2B receptor expressed in human SHSY5Y cells by FLPR assay; format: functional, cell-based, SH-SY5Y
[4] = target: T1, 5-hydroxytryptamine receptor 2C (Homo sapiens, UniProt P28335); assay: Antagonist activity at human 5HT2C receptor expressed in human SHSY5Y cells by FLPR assay; format: functional, cell-based, SH-SY5Y; conditions: for pKi: sh-sy5y
T1 sequence (P28335 whole entry): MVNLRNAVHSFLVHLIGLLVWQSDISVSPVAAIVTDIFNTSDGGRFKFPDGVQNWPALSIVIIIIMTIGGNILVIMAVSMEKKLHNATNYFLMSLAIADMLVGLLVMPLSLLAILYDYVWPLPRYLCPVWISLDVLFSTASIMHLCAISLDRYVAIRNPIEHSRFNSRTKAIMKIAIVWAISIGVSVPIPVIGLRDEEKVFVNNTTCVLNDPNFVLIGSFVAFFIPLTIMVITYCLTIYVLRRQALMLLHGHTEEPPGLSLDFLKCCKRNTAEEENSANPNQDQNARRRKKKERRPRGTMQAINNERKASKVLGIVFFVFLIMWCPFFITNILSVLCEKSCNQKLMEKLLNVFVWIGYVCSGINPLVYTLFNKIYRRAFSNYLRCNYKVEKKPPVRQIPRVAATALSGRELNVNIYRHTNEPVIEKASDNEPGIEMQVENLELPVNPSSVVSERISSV

[5] = target: T2, Alpha-1A adrenergic receptor (Homo sapiens, UniProt P35348); assay: Antagonist activity at human adrenergic alpha1A receptor assessed as intracellular calcium luminescence by cell based aequorin assay; format: functional
T2 sequence (P35348 whole entry): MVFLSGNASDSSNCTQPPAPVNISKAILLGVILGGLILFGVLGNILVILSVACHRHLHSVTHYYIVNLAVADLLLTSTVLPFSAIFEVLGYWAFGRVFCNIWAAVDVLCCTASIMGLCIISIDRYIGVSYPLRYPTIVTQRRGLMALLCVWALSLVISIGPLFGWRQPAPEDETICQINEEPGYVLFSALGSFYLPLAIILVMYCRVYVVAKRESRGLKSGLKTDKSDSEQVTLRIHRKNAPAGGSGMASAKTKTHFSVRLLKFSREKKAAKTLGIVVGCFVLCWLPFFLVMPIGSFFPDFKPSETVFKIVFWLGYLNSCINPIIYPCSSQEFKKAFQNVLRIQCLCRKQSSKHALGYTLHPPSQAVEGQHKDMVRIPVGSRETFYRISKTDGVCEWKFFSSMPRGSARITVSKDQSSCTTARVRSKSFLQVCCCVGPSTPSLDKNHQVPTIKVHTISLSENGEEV

[6] = target: T3, Alpha-1B adrenergic receptor (Homo sapiens, UniProt P35368); assay: Antagonist activity at human adrenergic Alpha-1B receptor assessed as intracellular calcium luminescence by cell based aequorin assay; format: functional
T3 sequence (P35368 whole entry): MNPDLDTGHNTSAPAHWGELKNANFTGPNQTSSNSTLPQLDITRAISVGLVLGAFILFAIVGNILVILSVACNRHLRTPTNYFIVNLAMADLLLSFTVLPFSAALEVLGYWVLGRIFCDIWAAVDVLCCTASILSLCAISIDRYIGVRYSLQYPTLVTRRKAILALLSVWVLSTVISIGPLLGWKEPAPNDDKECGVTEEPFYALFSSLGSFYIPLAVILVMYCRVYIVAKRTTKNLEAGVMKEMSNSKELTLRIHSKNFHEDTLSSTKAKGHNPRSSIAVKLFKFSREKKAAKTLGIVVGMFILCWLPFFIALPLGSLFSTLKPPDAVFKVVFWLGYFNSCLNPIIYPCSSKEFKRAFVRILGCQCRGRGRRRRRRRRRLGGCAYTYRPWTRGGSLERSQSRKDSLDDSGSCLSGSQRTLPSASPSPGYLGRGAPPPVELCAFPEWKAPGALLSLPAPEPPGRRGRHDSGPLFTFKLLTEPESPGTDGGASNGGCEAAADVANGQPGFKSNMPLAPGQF

[7] = Fraction unbound in rat brain; format: ADME, tissue-based
[8] = Fraction unbound in rat blood; format: ADME, tissue-based
[9] = Blood clearance in rat at 1 mg/kg, iv and 3 mg/kg, po; format: ADME, organism-based
[10] = Volume of distribution at steady state in rat at 1 mg/kg, iv and 3 mg/kg, po; format: ADME, organism-based; conditions: in vivo, read-out: Vdss
[11] = Half life in rat at 1 mg/kg, iv and 3 mg/kg, po; format: ADME, organism-based; conditions: in vivo
[12] = Oral bioavailability in rat at 3 mg/kg; format: ADME, organism-based; conditions: in vivo
[13] = AUC (0 to 8 hrs) ratio of drug level in brain to blood in rat at 3 mg/kg, po; format: ADME, organism-based; parameters: dose 3 mg/kg, route oral; conditions: read-out: Ratio AUC
[14] = Blood clearance in rat at 0.5 mg/kg, iv and 1 mg/kg, po; format: ADME, organism-based
[15] = Volume of distribution at steady state in rat at 0.5 mg/kg, iv and 1 mg/kg, po; format: ADME, organism-based; conditions: in vivo, read-out: Vdss
[16] = Half life in rat at 0.5 mg/kg, iv and 1 mg/kg, po; format: ADME, organism-based; conditions: in vivo
[17] = Oral bioavailability in rat at 1 mg/kg; format: ADME, organism-based; conditions: in vivo
[18] = AUC (0 to 8 hrs) ratio of drug level in brain to blood in rat at 1 mg/kg, po; format: ADME, organism-based; parameters: dose 1 mg/kg, route oral; conditions: read-out: Ratio AUC

Sequence of Histamine H1 receptor (P35367 whole entry): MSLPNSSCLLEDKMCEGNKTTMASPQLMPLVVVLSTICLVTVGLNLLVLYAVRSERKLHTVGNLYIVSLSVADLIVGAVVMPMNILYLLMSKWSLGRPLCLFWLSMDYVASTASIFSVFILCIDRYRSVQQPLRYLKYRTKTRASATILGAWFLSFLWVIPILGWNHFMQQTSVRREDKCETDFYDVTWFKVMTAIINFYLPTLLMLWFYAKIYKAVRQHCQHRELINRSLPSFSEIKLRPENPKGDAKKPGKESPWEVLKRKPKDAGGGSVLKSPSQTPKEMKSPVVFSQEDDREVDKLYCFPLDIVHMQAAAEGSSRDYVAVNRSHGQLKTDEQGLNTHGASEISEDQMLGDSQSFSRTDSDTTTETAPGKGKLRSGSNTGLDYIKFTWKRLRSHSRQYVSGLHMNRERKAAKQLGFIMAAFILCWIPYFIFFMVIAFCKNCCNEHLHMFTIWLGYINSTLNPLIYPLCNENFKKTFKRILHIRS
Sequence of 5-hydroxytryptamine receptor 2B (P41595 whole entry): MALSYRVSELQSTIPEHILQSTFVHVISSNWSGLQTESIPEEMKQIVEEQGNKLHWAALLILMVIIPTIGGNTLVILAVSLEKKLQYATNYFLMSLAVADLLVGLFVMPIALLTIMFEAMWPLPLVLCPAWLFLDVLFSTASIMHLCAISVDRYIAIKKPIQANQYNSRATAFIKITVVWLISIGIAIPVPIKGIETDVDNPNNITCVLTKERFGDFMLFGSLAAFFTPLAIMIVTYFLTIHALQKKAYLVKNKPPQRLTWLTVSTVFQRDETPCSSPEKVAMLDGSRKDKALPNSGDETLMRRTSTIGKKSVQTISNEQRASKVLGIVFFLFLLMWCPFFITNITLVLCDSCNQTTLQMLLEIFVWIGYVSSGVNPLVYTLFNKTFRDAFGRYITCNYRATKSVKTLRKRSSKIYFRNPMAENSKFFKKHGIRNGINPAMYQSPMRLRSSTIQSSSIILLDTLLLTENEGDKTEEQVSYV
Sequence of 5-hydroxytryptamine receptor 2A (P28223 whole entry): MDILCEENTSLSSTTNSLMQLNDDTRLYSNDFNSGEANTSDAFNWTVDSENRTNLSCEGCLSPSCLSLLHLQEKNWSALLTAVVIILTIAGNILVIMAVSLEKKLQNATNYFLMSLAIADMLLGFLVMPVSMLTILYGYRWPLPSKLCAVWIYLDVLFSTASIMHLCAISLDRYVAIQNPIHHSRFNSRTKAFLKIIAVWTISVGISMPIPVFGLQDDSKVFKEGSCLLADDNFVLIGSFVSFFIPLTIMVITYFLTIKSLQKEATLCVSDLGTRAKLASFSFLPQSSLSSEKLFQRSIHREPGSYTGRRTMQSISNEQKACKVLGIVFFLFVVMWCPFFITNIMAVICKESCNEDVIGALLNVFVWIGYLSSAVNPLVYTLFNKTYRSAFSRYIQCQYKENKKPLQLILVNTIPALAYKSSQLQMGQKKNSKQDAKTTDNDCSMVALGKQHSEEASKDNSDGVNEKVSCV

| SMILES | Ki [1] [nM] | Ki [2] [nM] | Ki [3] [nM] | Ki [4] [nM] | further results |
| --- | --- | --- | --- | --- | --- |
| Cc1nc2n(c1C)Cc1ccccc1C=C2N1CCN(CC(C)(C)C(=O)O)CC1 | 39.8 | 398 | 15.8 | 63.1 | – |
| CC(C)(CN1CCN(C2=Cc3ccccc3Cn3cc(Cl)nc32)CC1)C(=O)O | – | – | 100 | – | – |
| O=C(O)C1CC(N2CCN(C3=Cc4ccccc4Cn4ccnc43)CC2)C1 (single isomer, unassigned; isomer 2) | 25.1 | – | – | – | pKi ([2]; hek293): < 6.1; pKi ([3]; sh-sy5y): < 6.1; pKi [4]: < 6.1 |
| O=C(O)CCN1CCN(C2=Cc3ccccc3Cn3ccnc32)CC1 | 50.1 | 316 | > 794 | > 794 | – |
| C=C(CN1CCN(C2=Cc3ccccc3Cn3ccnc32)CC1)C(=O)O | 31.6 | 200 | > 794 | 501 | – |
| C1=C(N2CCNCC2)c2nccn2Cc2ccccc21 | 0.631 | 7.94 | 316 | 20 | Ki [5]: 3.98 nM; Ki [6]: 3.16 nM |
| O=C(O)C1CCC(N2CCN(C3=Cc4ccccc4Cn4ccnc43)CC2)CC1 (single isomer, unassigned; isomer 1) | 126 | 631 | 39.8 | > 2000 | – |
| COc1cnc2n1Cc1ccccc1C=C2N1CCN(CC(C)(C)C(=O)O)CC1 | 126 | 251 | 158 | 501 | – |
| O=C(O)C1CCC(N2CCN(C3=Cc4ccccc4Cn4ccnc43)CC2)CC1 (stereo in doubt; 16) | 63.1 | 501 | 25.1 | – | pKi [4]: < 5.7 |
| CC1CN(C2=Cc3ccccc3Cn3ccnc32)CC(C)N1CCC(=O)O (stereo not drawn) | 20 | 39.8 | 631 | 158 | – |
| CC(C)(CN1CCCN(C2=Cc3ccccc3Cn3ccnc32)CC1)C(=O)O | 50.1 | > 5010 | > 2000 | > 2000 | – |
| CC(C)(CN1CCN(C2=Cc3ccccc3Cn3ccnc32)CC1)C(=O)O | 25.1 | 79.4 | 1580 | 50.1 | fraction unbound [7]: > 0.5; fraction unbound [8]: > 0.5; clearance [9]: 38 mL/min/kg; Vd [10]: 1.9 L/kg; half-life [11]: 0.7 h; bioavailability [12]: 61%; Kp [13]: 0.02 |
| CC(C)(CN1CCN(C2=Cc3ccccc3Cn3cc(F)nc32)CC1)C(=O)O | 39.8 | 100 | 316 | 316 | fraction unbound [7]: 0.45; fraction unbound [8]: 0.4; clearance [14]: 10 mL/min/kg; Vd [15]: 1.1 L/kg; half-life [16]: 1.8 h; bioavailability [17]: 45%; Kp [18]: 0.04 |
| Cc1cn2c(n1)C(N1CCN(CC(C)(C)C(=O)O)CC1)=Cc1ccccc1C2 | 50.1 | 126 | 63.1 | 31.6 | – |
| O=C(O)C1CC(N2CCN(C3=Cc4ccccc4Cn4ccnc43)CC2)C1 (stereo in doubt; 13) | 12.6 | > 794 | > 794 | > 794 | – |

— ChEMBL document CHEMBL1221290, “Novel imidazobenzazepine derivatives as dual H1/5-HT2A antagonists for the treatment of sleep disorders” (Bioorg Med Chem Lett, 2010)
